Experimental data reported in US8906929B2, “Inhibitors of human immunodeficiency virus replication” (priority 2012, dated 2014).
pEC50: −log10 of the molar value.

System: recombinant NL-Rluc virus
Experiment: Inhibition of HIV replication (NL-RLuc virus in MT-2 cells, luciferase readout)
Format: cell-based
Conditions: Human immunodeficiency virus 1, MT2, 120 h, 5 days of incubation, 10% FBS

| Compound | pEC50 |
| --- | --- |
| Cc1nc2cc3nn2c(c1[C@H](OC(C)(C)C)C(=O)O)N1CCC(C)(/C=C/CCCOc2ccc(Cl)cc2-c2cccc-3c2)CC1 [Example 45, (2S)-2-(tert-Butoxy)-2-[(25E)-17-chloro-4,27-dimethyl-21-oxa-1,5,7,8-tetraazahexacyclo[25.2.2.1^6,^9.1^10,^14.0^2,^7.0^15,^20]tritriaconta-2,4,6(33),8,10(32),11,13,15(20),16,18,25-undecaen-3-yl]acetic acid] | 7.48 |
| Cc1nc2cc3nn2c(c1[C@H](OC(C)(C)C)C(=O)O)N1CCC(C)(CC1)OCCCCCc1ncccc1-c1cccc-3c1 [Example 46, (2S)-2-(tert-Butoxy)-2-{4,27-dimethyl-26-oxa-1,5,7,8,19-pentaazahexacyclo[25.2.2.1^6,^9.1^10,^14.0^2,^7.0^15,^20]tritriaconta-2,4,6(33),8,10(32),11,13,15(20),16,18-decaen-3-yl}acetic acid] | 8.00 |
| Cc1nc2cc3nn2c(c1[C@H](OC(C)(C)C)C(=O)O)N1CCC(C)(CC1)OC/C=C\COc1cc(F)ccc1-c1cccc-3c1 [Example 47, (2S)-2-(tert-Butoxy)-2-[(23Z)-18-fluoro-4,2,7-dimethyl-21,26-dioxa-1,5,7,8-tetraazahexacyclo[25.2.2.1^6,^9.1^10,^14.0^2,^7.0^15,^20]tritriaconta-2,4,6(33),8,10(32),11,13,15(20),16,18,23-undecaen-3-yl]acetic acid] | 7.85 |
| Cc1nc2cc3nn2c(c1[C@H](OC(C)(C)C)C(=O)O)N1CCC(C)(CC1)OC/C=C/COc1cc(F)ccc1-c1cccc-3c1 [Example 48, (2S)-2-(tert-Butoxy)-2-[(23E)-18-fluoro-4,2,7-dimethyl-21,26-dioxa-1,5,7,8-tetraazahexacyclo[25.2.2.1^6,^9.1^10,^14.0^2,^7.0^15,^20]tritriaconta-2,4,6(33),8,10(32),11,13,15(20),16,18,23-undecaen-3-yl]acetic acid] | 7.96 |
| Cc1nc2cc3nn2c(c1[C@H](OC(C)(C)C)C(=O)O)N1CCC(C)(CC1)OCCCCOc1cc(F)ccc1-c1cccc-3c1 [Example 49, (2S)-2-(tert-Butoxy)-2-{18-fluoro-4,27-dimethyl-21,26-dioxa-1,5,7,8-tetraazahexacyclo[25.2.2.1^6,^9.1^10,^14.0^2,^7.0^15,^20]tritriaconta-2,4,6(33),8,10(32),11,13,15(20),16,18-decaen-3-yl}acetic acid] | 8.05 |
| Cc1nc2cc3nn2c(c1[C@H](OC(C)(C)C)C(=O)O)N1CCC(C)(CC/C=C/CCc2ccncc2-c2cccc-3c2)CC1 [Example 50, (2S)-2-(tert-Butoxy)-2-[(23E)-4,27-dimethyl-1,5,7,8,17-pentaazahexacyclo[25.2.2.1^6,^9.1^10,^14.0^2,^7.0^15,^20]tritriaconta-2,4,6(33),8,10(32),11,13,15(20),16,18,23-undecaen-3-yl]acetic acid] | 8.22 |
| Cc1nc2cc3nn2c(c1[C@H](OC(C)(C)C)C(=O)O)N1CCC(C)(CC/C=C\CCc2ccncc2-c2cccc-3c2)CC1 [Example 51, (2S)-2-(tert-Butoxy)-2-[(23Z)-4,27-dimethyl-1,5,7,8,17-pentaazahexacyclo[25.2.2.1^6,^9.1^10,^14.0^2,^7.0^15,^20]tritriaconta-2,4,6(33),8,10(32),11,13,15(20),16,18,23-undecaen-3-yl]acetic acid] | 8.22 |
| Cc1nc2cc3nn2c(c1[C@H](OC(C)(C)C)C(=O)O)N1CCC(C)(CCCCCCc2ccncc2-c2cccc-3c2)CC1 [Example 52, (2S)-2-(tert-Butoxy)-2-{4,27-dimethyl-1,5,7,8,17-pentaazahexacyclo[25.2.2.1^6,^9.1^10,^14.0^2,^7.0^15,^20]tritriaconta-2,4,6(33),8,10(32),11,13,15(20),16,18-decaen-3-yl}acetic acid] | 8.30 |
| Cc1ccc2c(c1)-c1cccc(c1)-c1cc3nc(C)c([C@H](OC(C)(C)C)C(=O)O)c(n3n1)N1CCC(C)(CC1)OC/C=C/C[C@H](C)O2 [Example 53, (2S)-2-(tert-Butoxy)-2-[(22S,^24E)-4,17,22,28-tetramethyl-21,27-dioxa-1,5,7,8-tetraazahexacyclo[26.2.2.1^6,^9.1^10,^14.0^2,^7.0^15,^20]tetratriaconta-2,4,6(34),8,10(33),11,13,15(20),16,18,24-undecaen-3-yl]acetic acid] | 8.00 |
| Cc1ccc2c(c1)-c1cccc(c1)-c1cc3nc(C)c([C@H](OC(C)(C)C)C(=O)O)c(n3n1)N1CCC(C)(CC1)OC/C=C\C[C@H](C)O2 [Example 54, (2S)-2-(tert-Butoxy)-2-[(22S,24Z)-4,17,22,28-tetramethyl-21,27-dioxa-1,5,7,8-tetraazahexacyclo[26.2.2.1^6,^9.1^10,^14.0^2,^7.0^15,^20]tetratriaconta-2,4,6(34),8,10(33),11,13,15(20),16,18,24-undecaen-3-yl]acetic acid] | 6.89 |
| Cc1ccc2c(c1)-c1cccc(c1)-c1cc3nc(C)c([C@H](OC(C)(C)C)C(=O)O)c(n3n1)N1CCC(C)(CC1)OCCCC[C@H](C)O2 [Example 55, (2S)-2-(tert-Butoxy)-2-[(22S)-4,17,22,28-tetramethyl-21,27-dioxa-1,5,7,8-tetraazahexacyclo[26.2.2.1^6,^9.1^10,^14.0^2,^7.0^15,^20]tetratriaconta-2,4,6(34), 8, 10(33), 11, 13, 15 (20),16,18-decaen-3-yl]acetic acid] | 7.85 |
| Cc1nc2cc3nn2c(c1[C@H](OC(C)(C)C)C(=O)O)N1CCC(C)(CC1)OCC=C[C@@H](C)Oc1ccncc1-c1cccc-3c1 [Example 56, (2S)-2-(tert-Butoxy)-2-[(22R)-4,22,27-trimethyl-21,26-dioxa-1,5,7,8,17-pentaazahexacyclo[25.2.2.1^6,^9.1^10,^14.0^2,^7.0^15,^20]tritriaconta-2,4,6(33),8,10(32), 11, 13, 15 (20),16,18,23-undecaen-3-yl]acetic acid] | 6.45 |
| Cc1nc2cc3nn2c(c1[C@H](OC(C)(C)C)C(=O)O)N1CCC(C)(CC1)OCC=C[C@H](C)Oc1ccncc1-c1cccc-3c1 [Example 57, (2S)-2-(tert-Butoxy)-2-[(22S)-4,22,27-trimethyl-21,26-dioxa-1,5,7,8,17-pentaazahexacyclo[25.2.2.1^6,^9.1^10,^14.0^2,^7.0^15,^20]tritriaconta-2,4,6(33),8,10(32), 11, 13, 15(20),16,18,23-undecaen-3-yl]acetic acid] | 6.52 |
| Cc1ccc2c(c1)-c1cccc(c1)-c1cc3nc(C)c([C@H](OC(C)(C)C)C(=O)O)c(n3n1)N1CCC(C)(CC1)OCC=C[C@@H](C)O2 [Example 58, (2S)-2-(tert-Butoxy)-2-[(22R)-4,17,22,2,7-tetramethyl-21,26-dioxa-1,5,7,8-tetraazahexacyclo[25.2.2.1^6,^9.1^10,^14.0^2,^7.0^15,^20]tritriaconta-2,4,6(33),8,10(32),11,13,15(20),16,18,23-undecaen-3-yl]acetic acid] | 7.13 |
| Cc1ccc2c(c1)-c1cccc(c1)-c1cc3nc(C)c([C@H](OC(C)(C)C)C(=O)O)c(n3n1)N1CCC(C)(CC1)OCC=C[C@H](C)O2 [Example 59, (2S)-2-(tert-Butoxy)-2-[(22S)-4,17,22,27-tetramethyl-21,26-dioxa-1,5,7,8-tetraazahexacyclo[25.2.2.1^6,^9.1^10,^14.0^2,^7.0^15,^20]tritriaconta-2,4,6(33),8,10(32),11,13,15(20),16,18,23-undecaen-3-yl]acetic acid] | 8.10 |
| Cc1ccc2c(c1)-c1cccc(c1)-c1cc3nc(C)c([C@H](OC(C)(C)C)C(=O)O)c(n3n1)N1CCC(C)(CC1)OCCC[C@@H](C)O2 [Example 60, (2S)-2-(tert-Butoxy)-2-[(22R)-4,17,22,2,7-tetramethyl-21,26-dioxa-1,5,7,8-tetraazahexacyclo[25.2.2.1^6,^9.1^10,^14.0^2,^7.0^15,^20]tritriaconta-2,4,6(33),8,10(32),11,13,15(20),16,18-decaen-3-yl]acetic acid] | 7.08 |
| Cc1ccc2c(c1)-c1cccc(c1)-c1cc3nc(C)c([C@H](OC(C)(C)C)C(=O)O)c(n3n1)N1CCC(C)(CC1)OCCC[C@H](C)O2 [Example 61, (2S)-2-(tert-Butoxy)-2-[(22S)-4,17,22,27-tetramethyl-21,26-dioxa-1,5,7,8-tetraazahexacyclo[25.2.2.1^6,^9.1^10,^14.0^2,^7.0^15,^20]tritriaconta-2,4,6(33),8,10(32),11,13,15(20),16,18-decaen-3-yl]acetic acid] | 8.00 |
| Cc1nc2cc3nn2c(c1[C@H](OC(C)(C)C)C(=O)O)N1CCC(C)(CC1)OCC=CCOc1ccc(F)cc1-c1cccc-3c1 [Example 62] | 8.15 |
| Cc1nc2cc3nn2c(c1[C@H](OC(C)(C)C)C(=O)O)N1CCC(C)(CC1)OCCCCOc1ccc(F)cc1-c1cccc-3c1 [Example 63, (2S)-2-(tert-Butoxy)-2-{17-fluoro-4,27-dimethyl-21,26-dioxa-1,5,7,8-tetraazahexacyclo[25.2.2.1^6,^9.1^10,^14.0^2,^7.0^15,^20]tritriaconta-2,4,6(33),8,10(32),11,13,15(20),16,18-decaen-3-yl}acetic acid] | 8.15 |
| Cc1ccc2c(c1)-c1cccc(c1)-c1cc3nc(C)c([C@H](OC(C)(C)C)C(=O)O)c(n3n1)N1CCC(C)(CC1)OCC=CCC[C@H](C)O2 [Example 64, (2S)-2-(tert-Butoxy)-2-[(22S)-4,17,22,29-tetramethyl-21,28-dioxa-1,5,7,8-tetraazahexacyclo[27.2.2.1^6,^9.1^10,^14.0^2,^7.0^15,^20]pentatriaconta-2,4,6(35),8,10(34), 11, 13, 15(20),16,18,25-undecaen-3-yl]acetic acid] | 7.59 |
| Cc1cc2c(cc1Cl)O[C@@H](C)CC=CCOC1(C)CCN(CC1)c1c([C@H](OC(C)(C)C)C(=O)O)c(C)nc3cc(nn13)-c1cccc-2c1 [Example 66, (2S)-2-(tert-Butoxy)-2-[(22S)-18-chloro-4,17,22,28-tetramethyl-21,27-dioxa-1,5,7,8-tetraazahexacyclo[26.2.2.1^6,^9.1^10,^14.0^2,^7.0^15,^20]tetratriaconta-2,4,6(34),8,10(33), 11, 13, 15(20),16,18,24-undecaen-3-yl]acetic acid] | 7.37 |
